Patent publication US20230035127A1, “CULTURE AND DIFFERENTIATION OF PLURIPOTENT STEM CELLS” (University of Maryland, College Park, priority 2021, published 2023)
Values joined by “and” are separate entries in the source; they are usually repeats but may differ in a detail not shown here. Equal values may be shown once. “Also recorded” adds a separate entry of the source.

Tests used:
human eiPSCs [1] = test: Flow cytometry of protein markers in eiPSC spheroids and cardiac spheroids; type: cell-based
Experimental: For flow cytometry, the eiPSC spheroids were collected on day 0 and the cardiac spheroids were collected on days 1.5, 2.5, 12.5, 15. The spheroids were dissociated to single cells by 0.25% trypsin for 5 min at 37° C. and then fixed with 75% ethanol at 4° C. overnight. The cells were permeabilized with 0.05% Triton X-100 for 3 min and then rinsed with 1×PBS twice. The cell numbers were adjusted to 1×10^6 cells/tube in 700 μL of saline for each marker. These cells were incubated with primary antibodies including OCT-4 (1:500 dilution, Cell Signaling Technologies), NANOG (1:500 dilution, Cell Signaling Technologies), SSEA-4 (1:500 dilution, Cell Signaling Technologies), BRACHYURY (1:500; Santa Cruz Biotechnology), NKX2.5 (1:500; Santa Cruz Biotechnology), cTnT (1:500 dilution, Cell Signaling Technologies), cTnI (1:500 dilution, Cell Signaling Technologies), α-ACTININ (1:500 dilution; Santa Cruz Biotechnology), MUSASHI-1 (1:500; R&D Systems), and TUJ-1 (1:500; R&D Systems) at 4° C. overnight. Subsequently, the samples were rinsed with 1×PBS thrice before incubation with corresponding secondary antibodies: goat anti-mouse IgG FITC and goat anti-rabbit IgG PE, respectively (1:1000; Invitrogen) for 1 h at RT. The samples were then rinsed with 1×PBS thrice before flow cytometry. The negative controls were the cells incubated with respective primary antibodies as aforementioned (no incubation with a secondary antibody).

human eiPSCs [2] = test: RNA sequencing of eiPSC spheroids and cardiac spheroids; type: cell-based; details: MO vs. MT (1 vs 10 μM RI), day 13.5
Description: To investigate the mechanisms for the different outcomes when using different RI concentrations for culturing the eiPSC spheroids in 3D for cardiac differentiation, samples at various stages of the 3D culture and differentiation shown in FIG. 1 were collected and analyzed by RNA-sequencing (RNA-seq). The sample groups and their abbreviations are summarized in Table 1 including undifferentiated eiPSCs on day −2.5 (U), cardiac commitment on day 2.5 (C), cardiac maturation on day 13.5 (M), together with 2D monolayer colonies on day −4 (2D) as a common 2D undifferentiated control for both the 1 (one: […]) and 10 (ten: T) μM RI 3D culture. The raw data of RAN-seq were of high quality with an error rate of no more than 0.03%. […] Afterward, the gene expression level was calculated by the number of mapped reads, also known as fragments per kilobase of transcript per million mapped reads (FPKM). […]
For RNA sequencing (RNA-Seq), total RNA was extracted from the eiPSC clumps from 2D culture on day −4 (termed as 2D) and spheroids collected on day −2.5 after 1.5 days in the 3D culture (termed as UO and UT for 1 μM and 10 μM RI conditions, respectively), day 2.5 (termed as CO and CT), and day 13.5 (termed as MO and MT). […] The RNA concentration in the samples was measured with Nanodrop and the integrity and quality of RNAs in the samples were confirmed with the Nano RNA Bioanalyzer. […]

[3] = test system: eiPSC-derived cardiac spheroids; test: Re-plating of cardiac spheroids in regular cell culture petri dish (attachment); type: cell-based, human; details: day 13.5 spheroids, 3 days after re-plating
Experimental: After 3 days, ˜61% of the cardiac spheroids in the 10 μM RI group attached to the 2D surface, and some of the cells migrated out of the spheroids appeared to be neuron-like with neurite-like processes (FIG. 4B-C). […] To confirm the aforementioned observation of neuron-like cells in the 10 μM RI group, immunofluorescence staining of cryosectioned cardiac spheroids on day 12.5 in the 1 and 10 μM RI groups was conducted. […] Therefore, studies were performed to further understand the mechanisms of the improved cardiac differentiation with the reduced RI.

C[C@@H](N)[C@H]1CC[C@H](C(=O)Nc2ccncc2)CC1.Cl.Cl (relative stereo) [RI, (+)-(R)-trans-4-(1-aminoethyl)-N-(4-pyridyl) cyclo-hexanecarboxamide dihydrochloride]
expression of pluripotency markers OCT-4, NANOG, SSEA-4 (human eiPSCs [1]; 1 μM RI group versus 10 μM RI group, day 0): significantly higher | expression of neural-specific protein markers MUSASHI-1 and TUJ-1 (human eiPSCs [1]; 1 μM RI, cardiac spheroids day 12.5, dihydrochloride): negligible; also recorded: negative | BRACHYURY-positive cells (human eiPSCs [1]; 1 μM RI, day 1.5, after CHIR99021 and BIO for 1 day): ~100% | NKX2.5 expression (human eiPSCs [1]; 1 μM RI, day 2.5, after XAV939 and KY02111): ~100% | cTnI-positive cells (human eiPSCs [1]; 1 μM RI, day 12.5): 93.9% | cells positive for sarcomere-related proteins including α-ACTININ and cTnI (human eiPSCs [1]; 1 μM RI, day 12.5): more than 90% | α-ACTININ-positive cells (human eiPSCs [1]; 1 μM RI, day 12.5): 95% | expression of ectoderm marker NESTIN (human eiPSCs [1]; 1 μM RI, eiPSC spheroids day 0): negligible | expression of ectoderm marker NESTIN (human eiPSCs [1]; 10 μM RI, eiPSC spheroids after four-day culture (day 0)): 73.1% | percentage of cTnT-positive cells and mean intensity of cTnT fluorescence staining (human eiPSCs [1]; RI from 1 to 5 to 10 μM, cardiac spheroids day 15, dihydrochloride): decreased with the increase of the RI concentration; also recorded: decreases as the RI treatment concentration increases | top 2 significantly down-regulated differentially expressed gene groups (GO enrichment) (human eiPSCs [2]): enriched to the forebrain and axon development | top 18 significantly upregulated differentially expressed gene groups (GO enrichment) (human eiPSCs [2]): enriched to heart development, muscle system process, and the development of Z-disc and I band | percentage of cardiac spheroids attached to the 2D surface ([3]; 5 μM RI): ~41% | percentage of cardiac spheroids attached to the 2D surface ([3]; 10 μM RI, dihydrochloride): ~61% and > 60%
